From US20070155824A1, “USE OF BENZO-FUSED HETEROCYCLE SULFAMIDE DERIVATIVES FOR DISEASE MODIFICATION / EPILEPTOGENESIS” (priority 2005, published 2007)

Experiments:
[1] = tested on: amygdala kindled rat model of partial epilepsy; assay: In Vivo, Amygdala Kindling Assay; design: species or system Sprague-Dawley rats; settings: rats
From the text: The development of amygdala kindling is an established model of epileptogenesis. (Amano K, Hamada K, Yagi K, Seino M. Antiepileptic effects of topiramate on amygdaloid kindling in rats. Epilepsy Res. 1998 Jul;31(2):123-8; Barton M E, White H S. The effect of CGX-1007 and CI-1041, novel NMDA receptor antagonists, on kindling acquisition and expression. Epilepsy Res. 2004 Mar;59(1):1-12; Loscher W, Honack D, Rundfeldt C. Antiepileptogenic effects of the novel anticonvulsant levetiracetam (ucb L059)in the kindling model of temporal lobe epilepsy. J Pharmacol Exp Ther. 1998 Feb;284(2):474-9; McNamara J O. Analyses of the molecular basis of kindling development. Psychiatry Clin Neurosci. 1995 June; 49(3):S175-8. Review.; Morimoto K, Katayama K, Inoue K, Sato K. Effects of competitive and noncompetitive NMDA receptor antagonists on kindling and LTP. Pharmacol Biochem Behav. 1991 Dec;40(4):893-9; Racine, R. J. 1972. Modification of seizure activity by electrical stimulation. II. Motor seizure. Electroencephalogr. Clin. Neurophysiol. 32, 281-294). The kindled rat model of partial epilepsy is an accepted model of epileptogenesis (McNamara J O. Analyses of the molecular basis of kindling development. Psychiatry Clin Neurosci. 1995 Jun;49(3):S1 75-8. Review.).
Briefly, the assay procedure was as follows. Adult male, Sprague-Dawley rats weighing between 250-300 g were obtained from Charles River, Wilmington, Mass. All the animals were housed on a 12:12 light dark cycle and permitted free access to both food (Prolab RMH 3000) and water except when removed from the home cage for experimental procedures. Animals were cared for in a matter consistent with the recommendations detailed in the National Research Council Publication, “Guide for the Care and Use of Laboratory Animals” in a temperature controlled, pesticide-free facility. Kindling stimulations were routinely performed between 9 AM-2 PM to avoid any circadian variations.
Compound #8 was triturated in a small volume of 0.5% methylcellulose, sonicated for 10 min, and brought to a final volume with 0.5% methylcellulose. Compound #8 was administered systemically (i.p.) in a volume of 0.04 ml/10 g body weight and all tests were conducted at the pre-determined time of peak effect of 0.5 hours after i.p. administration.
The ability of Compound #8 to block the expression of amygdala kindled seizures was determined as follows. Rats were anaesthetized with a ketamine (120 mg/kg, i.p.) and xylazine (12 mg/kg, i.p.) cocktail. […]
Amygdala kindling was then performed according to the following protocol. […] The behavioral seizure score and AD duration was recorded for rats in each treatment group. […]

| SMILES | melting point [°C] | behavioral seizure score (Racine scale) at the conclusion of the drug- and stimulus-free period ([1]; 75 mg/kg i.p. 30 min before daily amygdala stimulation (200 μA, 2 s) for up to 13 days, re-challenge without drug after one-week drug- and stimulus-free period, vehicle=4.6±0.24) | acquisition of the full generalized kindled seizure ([1]; 75 mg/kg i.p. during kindling acquisition) | after-discharge (AD) duration over the kindling acquisition phase vs vehicle ([1]; 75 mg/kg i.p., daily stimulation, progressive increase in both groups) | delay of acquisition of kindling ([1]; stimulated in the absence of drug after the drug-free week, seizure score rose parallel to vehicle) |
| --- | --- | --- | --- | --- | --- |
| NS(=O)(=O)NCC1CCc2ccccc2O1 (centres unmarked) [Compound #10, Chroman-2-ylmethylsulfamide] | 100 to 101 | – | – | – | – |
| NS(=O)(=O)NC[C@H]1COc2cc(Cl)ccc2O1 [Compound #8, (2S)-(−)-N-(6-Chloro-2,3-dihydro-benzo[1,4]dioxin-2-ylmethyl)-sulfamide] | – | 1.4±0.40 | prevented the acquisition of the full generalized kindled seizure | No statistical difference between treatment groups | delayed the acquisition of kindling by several days |
